{"source": "paper PMC4594923", "about": "“Food Polyphenols Fail to Cause a Biologically Relevant Reduction of COX-2 Activity” (PLoS ONE, 2015)", "key": {"[1]": {"test_system": "arachidonic acid (AA) cascade", "assay": "plasma oxylipin/PG levels in LPS induced sepsis in mice;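 further: male C57BL/6N mice given LPS, plasma oxylipins quantified by LC-MS after solid-phase extraction, pretreatment or vehicle given intraperitoneally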", "type": "in vivo, C57BL/6N mice", "conditions": "mice, 24 h after LPS, vs. LPS group"}, "[2]": {"assay": "clinical chemistry in plasma (urea, creatinine, AST, ALT, LDH) in LPS induced sepsis in mice", "type": "in vivo, C57BL/6N mice", "conditions": "compound i. p. 100 mg/kg bw 2 h before LPS, 24 h after LPS"}, "[3]": {"test_system": "MCP–1", "assay": "kidney MCP–1 mRNA (qPCR) in LPS induced sepsis in mice", "type": "in vivo, C57BL/6N mice", "conditions": "compound i. p. 100 mg/kg bw 2 h before LPS, 24 h after LPS, vs. LPS group", "description": "(§1) Samples were stored at -80°C till further analysis. […] Plasma was generated by centrifugation at 4000 g at 4°C and stored at -80°C till further analysis.\n(§2) Tissue sections were stored in RNA-later immediately after organ retrieval. Total RNA was extracted using the RNeasy mini kit system (Qiagen, Hilden, Germany) and transcribed using Superscript II Reverse transcriptase (Invitrogen). Quantitative (q) PCR was performed on […] (Roche Diagnostics, Penzberg, Germany) using FastStart Sybr-Green chemistry. Gene-specific primers for IL–6 (Quantitec QT00098875, Qiagen) and MCP–1 (Quantitec QT00167832, Qiagen) were used for the gene of interest and HPRT served as house keeping gene for normalization (Quantitec QT00166768, Qigaen). Quantification was carried out using qgene software."}, "[4]": {"test_system": "IL–6", "assay": "kidney IL–6 mRNA (qPCR) in LPS induced sepsis in mice", "type": "in vivo, C57BL/6N mice", "conditions": "compound i. p. 100 mg/kg bw 2 h before LPS, 24 h after LPS", "description": "as §1, §2"}, "[5]": {"test_system": "arachidonic acid (AA) cascade", "assay": "kidney tissue oxylipin/PG levels in LPS induced sepsis in mice", "from_the_text": "Twelve week old male C57BL/6N mice (Charles River, Sulzfeld, Germany) were used for all experiments. C57BL/6 male mice (H2^b, 11–13 weeks of age) were obtained from Charles River (Sulzfeld, Germany). Animals were cared for in accordance with the institution’s guidelines for experimental animals and with the guidelines of the American Physiological Society. […] Mice were monitored closely and if they appeared compromised (i.e. inactivity, no intake of food or water) after compound or LPS injection the experiment was terminated.\nOxylipin levels were analyzed in plasma and tissues by LC-MS following SPE extraction of 200 μl plasma or tissue homogenate (50 mg) on Chromabond C18 ec cartridges (Machery-Nagel, Düren, Germany) [19].\nGraphPad Prism 5.0 (GraphPad Software, San Diego, USA) was used for data analysis, the fitting of dose response curves and calculation of the IC50 values. Statistical differences were determined by Dunnetts test (LPS vs. other groups)."}, "[6]": {"conditions": "compound i. p. 100 mg/kg bw 2 h before LPS (10 mg/kg bw i. p.)"}, "[7]": {"conditions": "kidney tissue 24 h after LPS treatment, LPS +, mean"}, "[8]": {"conditions": "kidney tissue 24 h after LPS treatment, LPS +, mean, < = below LOQ"}, "[9]": {"conditions": "mice, compound i. p. 100 mg/kg bw 2 h before LPS, 24 h after LPS, vs. LPS group"}}, "note": "“Also recorded” adds a separate entry of the source. Marks after values point to notes of the source that are not given here.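 Wherever 1a,1b-dihomo-PGF2α is given: male C57BL/6N mice challenged with LPS, kidney taken 24 h later, oxylipins quantified by LC-MS after solid-phase extraction of tissue homogenate.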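 Wherever 4,5-DiHDPE is given: male C57BL/6N mice challenged with LPS, kidney taken 24 h later, oxylipins quantified by LC-MS after solid-phase extraction of tissue homogenate.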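 Wherever 4-HDHA is given: male C57BL/6N mice challenged with LPS, kidney taken 24 h later, oxylipins quantified by LC-MS after solid-phase extraction of tissue homogenate.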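 Wherever 5(6)-EpETrE is given: male C57BL/6N mice challenged with LPS, kidney taken 24 h later, oxylipins quantified by LC-MS after solid-phase extraction of tissue homogenate.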"}
{"smiles": "Cc1ccc(-c2cc(C(F)(F)F)nn2-c2ccc(S(N)(=O)=O)cc2)cc1", "note": "[celecoxib, reference compound]", "values": [{"measurement": "plasma 6-keto-PGF1α level", "setting": "[1]; [6]", "result": "below the limit of quantification; also recorded: decreased"}, {"measurement": "plasma 13,14-dihydro-15-keto-PGE1 level", "setting": "[1]; [6]", "result": "below the limit of quantification; also recorded: decreased"}, {"measurement": "plasma 13,14-dihydro-15-keto-PGF2α level", "setting": "[1]; [6]", "result": "massively decreased"}, {"measurement": "plasma PG levels (LPS induced PG increase)", "setting": "[1]; [6]", "result": "effectively attenuated; also recorded: reduced"}, {"measurement": "plasma PGE2 level", "setting": "[1]; [6]", "result": "massively decreased"}, {"measurement": "plasma PGF2α level", "setting": "[1]; [6]", "result": "below the limit of quantification"}, {"measurement": "plasma epoxy- and dihydroxy-fatty acid (FA) metabolites of the CYP pathway", "setting": "[1]; compound i. p. 100 mg/kg bw 2 h before LPS", "result": "decreased"}, {"measurement": "plasma ALT activity", "setting": "[2]", "result": "elevated; also recorded: moderate elevation"}, {"measurement": "plasma AST activity", "setting": "[2]", "result": "elevated; also recorded: moderate elevation"}, {"measurement": "plasma LDH activity", "setting": "[2]", "result": "moderate elevation"}, {"measurement": "plasma creatinine level", "setting": "[2]", "result": "elevation"}, {"measurement": "plasma urea level", "setting": "[2]", "result": "elevation"}, {"measurement": "kidney MCP–1 mRNA levels", "setting": "[3]", "result": "did not affect"}, {"measurement": "further increase of kidney IL–6 mRNA expression in comparison to LPS group", "setting": "[4]", "result": 9, "unit": "fold"}, {"measurement": "1a,1b-dihomo-PGF2α", "setting": "[5]; [7]", "result": "0.54^* nM"}, {"measurement": "4,5-DiHDPE", "setting": "[5]; [7]", "result": "22^‡ nM"}, {"measurement": "4-HDHA", "setting": "[5]; [7]", "result": 21, "unit": "nM"}, {"measurement": "5(6)-EpETrE", "setting": "[5]; [7]", "result": "130^† nM"}, {"measurement": "5,6-DiHETrE", "setting": "[5]; [7]", "result": "2.1^‡ nM"}, {"measurement": "5-HEPE", "setting": "[5]; [7]", "result": "1.5^‡ nM"}, {"measurement": "5-HETE", "setting": "[5]; [7]", "result": "16^‡ nM"}, {"measurement": "5-oxo-ETE", "setting": "[5]; [7]", "result": 31, "unit": "nM"}, {"measurement": "6-keto-PGF1α", "setting": "[5]; [7]", "result": 36, "unit": "nM"}, {"measurement": "7,8-DiHDPE", "setting": "[5]; [7]", "result": 1.9, "unit": "nM"}, {"measurement": "7-HDHA", "setting": "[5]; [7]", "result": "4.8^‡ nM"}, {"measurement": "8(9)-EpETrE", "setting": "[5]; [7]", "result": "30^† nM"}, {"measurement": "8,9-DiHETrE", "setting": "[5]; [7]", "result": 1.7, "unit": "nM"}, {"measurement": "8-HDHA", "setting": "[5]; [7]", "result": "24^‡ nM"}, {"measurement": "8-HETE", "setting": "[5]; [7]", "result": 4.6, "unit": "nM"}, {"measurement": "8-iPF2a", "setting": "[5]; [7]", "result": 1.2, "unit": "nM"}, {"measurement": "9(10)-EpOME", "setting": "[5]; [7]", "result": "160^* nM"}, {"measurement": "9(10)-Epoxystearic acid", "setting": "[5]; [7]", "result": "81^† nM"}, {"measurement": "9,10,13-TriHOME", "setting": "[5]; [7]", "result": 4.1, "unit": "nM"}, {"measurement": "9,10-DiHODE", "setting": "[5]; [7]", "result": 1.3, "unit": "nM"}, {"measurement": "9,10-DiHOME", "setting": "[5]; [7]", "result": "17^* nM"}, {"measurement": "9,10-Dihydroxystearic acid", "setting": "[5]; [7]", "result": 58, "unit": "nM"}, {"measurement": "9,12,13-TriHOME", "setting": "[5]; [7]", "result": 24, "unit": "nM"}, {"measurement": "9-HETE", "setting": "[5]; [7]", "result": "4.0^* nM"}, {"measurement": "9-HODE", "setting": "[5]; [7]", "result": 160, "unit": "nM"}, {"measurement": "9-HOTrE", "setting": "[5]; [7]", "result": 4.3, "unit": "nM"}, {"measurement": "9-oxo-ODE", "setting": "[5]; [7]", "result": 51, "unit": "nM"}, {"measurement": "10(11)-EpDPE", "setting": "[5]; [7]", "result": "70^‡ nM"}, {"measurement": "10,11-DiHDPE", "setting": "[5]; [7]", "result": 2.0, "unit": "nM"}, {"measurement": "10-HDHA", "setting": "[5]; [7]", "result": 4.3, "unit": "nM"}, {"measurement": "11(12)-EpETE", "setting": "[5]; [7]", "result": "3.5^* nM"}, {"measurement": "11(12)-EpETrE", "setting": "[5]; [7]", "result": "77^† nM"}, {"measurement": "11,12-DiHETrE", "setting": "[5]; [7]", "result": "1.7^* nM"}, {"measurement": "11-HDHA", "setting": "[5]; [7]", "result": "6.6^* nM"}, {"measurement": "11-HETE", "setting": "[5]; [7]", "result": 10, "unit": "nM"}, {"measurement": "12(13)-EpOME", "setting": "[5]; [7]", "result": "120^† nM"}, {"measurement": "12,13-DiHOME", "setting": "[5]; [7]", "result": "28^† nM"}, {"measurement": "12-HEPE", "setting": "[5]; [7]", "result": 2.9, "unit": "nM"}, {"measurement": "12-HETE", "setting": "[5]; [7]", "result": 29, "unit": "nM"}, {"measurement": "13(14)-EpDPE", "setting": "[5]; [7]", "result": "55^† nM"}, {"measurement": "13,14-DiHDPE", "setting": "[5]; [7]", "result": "1.5^‡ nM"}, {"measurement": "13,14-dihydro-15-keto-PGF2α", "setting": "[5]; [7]", "result": "0.72^† nM"}, {"measurement": "13-HDHA", "setting": "[5]; [7]", "result": 6.0, "unit": "nM"}, {"measurement": "13-HODE", "setting": "[5]; [7]", "result": 140, "unit": "nM"}, {"measurement": "13-HOTrE", "setting": "[5]; [7]", "result": 5.2, "unit": "nM"}, {"measurement": "13-oxo-ODE", "setting": "[5]; [7]", "result": 9.2, "unit": "nM"}, {"measurement": "14(15)-EpETE", "setting": "[5]; [7]", "result": "4.2^* nM"}, {"measurement": "14(15)-EpETrE", "setting": "[5]; [7]", "result": "57^† nM"}, {"measurement": "14,15-DiHETE", "setting": "[5]; [7]", "result": "0.34^‡ nM"}, {"measurement": "14,15-DiHETrE", "setting": "[5]; [7]", "result": "3.3^‡ nM"}, {"measurement": "14-HDHA", "setting": "[5]; [7]", "result": 17, "unit": "nM"}, {"measurement": "15(16)-EpODE", "setting": "[5]; [7]", "result": 55, "unit": "nM"}, {"measurement": "15(S)-HETrE", "setting": "[5]; [7]", "result": 4.0, "unit": "nM"}, {"measurement": "15,16-DiHODE", "setting": "[5]; [7]", "result": 21, "unit": "nM"}, {"measurement": "15-HETE", "setting": "[5]; [7]", "result": 19, "unit": "nM"}, {"measurement": "15-oxo-ETE", "setting": "[5]; [7]", "result": 8.4, "unit": "nM"}, {"measurement": "16(17)-EpDPE", "setting": "[5]; [7]", "result": "52^‡ nM"}, {"measurement": "16,17-DiHDPE", "setting": "[5]; [7]", "result": "2.8^‡ nM"}, {"measurement": "16-HDHA", "setting": "[5]; [7]", "result": 6.1, "unit": "nM"}, {"measurement": "17,18-DiHETE", "setting": "[5]; [7]", "result": "2.1^‡ nM"}, {"measurement": "18-HEPE", "setting": "[5]; [7]", "result": 1.3, "unit": "nM"}, {"measurement": "19(20)-EpDPE", "setting": "[5]; [7]", "result": "78^* nM"}, {"measurement": "19,20-DiHDPE", "setting": "[5]; [7]", "result": "29^‡ nM"}, {"measurement": "20-HDHA", "setting": "[5]; [7]", "result": 18, "unit": "nM"}, {"measurement": "20-HEPE", "setting": "[5]; [7]", "result": 5.3, "unit": "nM"}, {"measurement": "EKODE", "setting": "[5]; [7]", "result": 41, "unit": "nM"}, {"measurement": "PGD2", "setting": "[5]; [7]", "result": 7.4, "unit": "nM"}, {"measurement": "PGE1", "setting": "[5]; [7]", "result": 2.5, "unit": "nM"}, {"measurement": "PGE2", "setting": "[5]; [7]", "result": 45, "unit": "nM"}, {"measurement": "PGF1α", "setting": "[5]; [7]", "result": "1.4^† nM"}, {"measurement": "PGF2α", "setting": "[5]; [7]", "result": 15, "unit": "nM"}, {"measurement": "TXB2", "setting": "[5]; [7]", "result": 1.3, "unit": "nM"}, {"measurement": "5-iPF2α", "setting": "[5]; [8]", "result": "< 1.0", "unit": "nM"}, {"measurement": "8(9)-EpETE", "setting": "[5]; [8]", "result": "2.4^* nM"}, {"measurement": "12,13-DiHODE", "setting": "[5]; [8]", "result": "< 2.0", "unit": "nM"}, {"measurement": "13,14-dihydro-15-keto-PGE1", "setting": "[5]; [8]", "result": "< 0.1", "unit": "nM"}, {"measurement": "20-HETE", "setting": "[5]; [8]", "result": "< 2.7", "unit": "nM"}, {"measurement": "PGD1", "setting": "[5]; [8]", "result": "< 0.50", "unit": "nM"}, {"measurement": "PGF2α", "setting": "[5]; kidney tissue 24 h after LPS treatment, LPS +, mean, second listing of PGF2α (r9)", "result": 15, "unit": "nM"}, {"measurement": "kidney 13,14-dihydro-15-keto-PGE1 level", "setting": "[5]; [9]", "result": "<LOQ"}, {"measurement": "kidney 13,14-dihydro-15-keto-PGE2α level", "setting": "[5]; [9]", "result": "lowered"}]}
